Experimental data from patent publication US20130165475A1, “DEUTERIUM-ENRICHED HETEROCYCLIC COMPOUNDS AS KINASE INHIBITORS” (ASCEPION PHARMACEUTICALS, INC., priority 2010, published 2013).
Structures can show the parent of a compound that is named as a salt.

Legend:
VEGFR2 = target: T1, VEGFR2 (Homo sapiens, UniProt P35968); test: VEGFR2 cell-based assay (ELISA, phosphor-/total VEGFR2 in transfected CHO cells); conditions: compound at 100 nM; CHO cells transfected with full length VEGFR2; FBS stimulation; read-out: % VEGFR2 kinase activity remains
T1 construct: expressed in transfected cells; host or cells: CHO cells
T1 sequence (P35968 20-1356): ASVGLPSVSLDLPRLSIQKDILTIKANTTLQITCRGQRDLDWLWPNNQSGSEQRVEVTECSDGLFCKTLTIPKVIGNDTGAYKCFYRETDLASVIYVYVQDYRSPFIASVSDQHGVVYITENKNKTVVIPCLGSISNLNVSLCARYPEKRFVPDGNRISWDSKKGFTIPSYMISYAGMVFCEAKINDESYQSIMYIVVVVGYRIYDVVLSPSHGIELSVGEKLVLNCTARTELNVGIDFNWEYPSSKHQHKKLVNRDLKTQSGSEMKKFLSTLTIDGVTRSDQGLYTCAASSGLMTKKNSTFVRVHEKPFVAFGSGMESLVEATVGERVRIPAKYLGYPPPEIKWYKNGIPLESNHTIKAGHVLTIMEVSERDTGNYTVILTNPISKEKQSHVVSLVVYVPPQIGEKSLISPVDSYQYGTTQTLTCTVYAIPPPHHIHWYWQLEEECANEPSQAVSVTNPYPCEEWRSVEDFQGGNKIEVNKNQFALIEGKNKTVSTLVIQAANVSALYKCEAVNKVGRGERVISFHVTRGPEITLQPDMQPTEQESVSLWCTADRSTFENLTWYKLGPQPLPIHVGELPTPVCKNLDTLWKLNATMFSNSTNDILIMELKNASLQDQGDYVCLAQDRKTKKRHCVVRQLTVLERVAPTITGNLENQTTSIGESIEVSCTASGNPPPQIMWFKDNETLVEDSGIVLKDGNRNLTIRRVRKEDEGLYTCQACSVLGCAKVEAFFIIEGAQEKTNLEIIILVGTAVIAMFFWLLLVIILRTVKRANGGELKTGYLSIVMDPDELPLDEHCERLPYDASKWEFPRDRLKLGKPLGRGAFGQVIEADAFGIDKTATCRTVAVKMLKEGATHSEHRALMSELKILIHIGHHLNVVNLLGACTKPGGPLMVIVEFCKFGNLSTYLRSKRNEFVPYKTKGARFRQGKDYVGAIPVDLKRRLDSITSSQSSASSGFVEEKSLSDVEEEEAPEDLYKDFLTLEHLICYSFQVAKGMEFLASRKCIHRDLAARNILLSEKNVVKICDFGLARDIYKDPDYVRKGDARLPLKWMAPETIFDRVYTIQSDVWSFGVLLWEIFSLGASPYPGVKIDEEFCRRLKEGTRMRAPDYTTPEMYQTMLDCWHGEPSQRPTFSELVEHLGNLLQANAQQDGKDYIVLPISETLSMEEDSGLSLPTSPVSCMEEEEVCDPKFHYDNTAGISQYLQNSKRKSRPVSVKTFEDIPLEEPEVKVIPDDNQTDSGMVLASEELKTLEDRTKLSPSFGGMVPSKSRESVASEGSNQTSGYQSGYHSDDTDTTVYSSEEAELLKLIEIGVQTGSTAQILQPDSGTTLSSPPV
Description: A standard cell-based assay for VEGFR2 kinase activity can be used to test or screen the compounds of this invention and to identify VEGFR2 antagonists. In this example, ELISA kits (R&D Systems, Inc., Minneapolis, Minn. 55413, USA) were used.
The activity of VEGFR2 in cells depended on its autophosphorylation level by various factors including growth factors. In order to induce the cell to produce VEGFR2, full length of VEGFR2 sequence was cloned into PC-DNA3.1 vector, the plasmid was then transfected into CHO cells. After 48 hours, the expression of VEGFR2 in transfected CHO cells was confirmed by regular western blotting.
A compound to be tested was first dissolved in DMSO to a concentration of 10 mM and stored at −20° C. One day before the test, CHO cells transfected with full length VEGFR2 plasmid were grown in Dulbecco's Modified Eagle Medium (DMEM) without the presence of serum. On the day of the test, the compounds with various concentrations in DMSO (from 0.5 nM to 500 nM) were added into DMEM. Two hours later, 20% of FBS (Fetal Bovine Serum) was added into the medium to stimulate the production of phosphor-VEGFR2. Cell lysate from approximately 5×10^5 transfected CHO cells were reacted with anti-phosphor VEGFR2 or anti-total VEGFR2 antibody in 96-well plates, in the presence of detection antibody. The phosphor-VEGFR2 or total VEGFR2 were detected with Streptavidin-HRP(R&D Systems), followed by chemiluminescent detection. The level of VEGFR2 kinase activity was quantified as the ratio between the amount of phosphor- and that of total VEGFR2 proteins.

EphB4 = target: T2, EphB4 (Homo sapiens, UniProt P54760); test: EphB4 cell-based assay (quantitative Western blotting, PC-3 cells, Ephrin-B2 stimulated); conditions: compound at 100 nM; PC-3 human prostate cancer cells; Ephrin-B2 stimulation; read-out: % EphB4 kinase activity remains
T2 construct: EphB4 autophosphorylation in PC-3 human prostate cancer cells; host or cells: PC-3 human prostate cancer cells
T2 sequence (P54760 16-987): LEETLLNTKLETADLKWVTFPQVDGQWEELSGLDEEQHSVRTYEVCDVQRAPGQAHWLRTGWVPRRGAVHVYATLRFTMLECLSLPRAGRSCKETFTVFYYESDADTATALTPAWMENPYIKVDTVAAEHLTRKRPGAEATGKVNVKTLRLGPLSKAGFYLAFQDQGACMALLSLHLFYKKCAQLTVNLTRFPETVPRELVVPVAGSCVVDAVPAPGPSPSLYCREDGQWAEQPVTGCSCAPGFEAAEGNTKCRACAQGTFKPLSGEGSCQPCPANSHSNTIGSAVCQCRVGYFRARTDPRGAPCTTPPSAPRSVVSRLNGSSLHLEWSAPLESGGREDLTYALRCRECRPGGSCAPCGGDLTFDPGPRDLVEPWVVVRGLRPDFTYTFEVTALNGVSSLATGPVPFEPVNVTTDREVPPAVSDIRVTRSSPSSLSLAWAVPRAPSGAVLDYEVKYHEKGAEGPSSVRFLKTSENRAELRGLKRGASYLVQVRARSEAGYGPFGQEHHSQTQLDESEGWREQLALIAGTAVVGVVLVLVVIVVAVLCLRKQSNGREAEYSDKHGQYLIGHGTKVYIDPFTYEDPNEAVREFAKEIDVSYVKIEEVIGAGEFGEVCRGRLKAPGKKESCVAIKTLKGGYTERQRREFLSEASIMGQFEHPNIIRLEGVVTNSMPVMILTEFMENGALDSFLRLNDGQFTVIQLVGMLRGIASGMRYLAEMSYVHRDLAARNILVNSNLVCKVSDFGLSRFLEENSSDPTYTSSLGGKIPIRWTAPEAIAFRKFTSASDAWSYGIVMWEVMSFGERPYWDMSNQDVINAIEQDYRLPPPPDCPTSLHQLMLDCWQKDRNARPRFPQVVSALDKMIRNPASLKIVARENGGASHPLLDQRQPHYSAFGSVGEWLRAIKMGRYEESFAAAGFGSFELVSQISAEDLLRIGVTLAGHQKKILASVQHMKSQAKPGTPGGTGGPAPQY
Description: A standard image-based quantitative Western blotting assay for EphB4 kinase activity can be used to test or screen the compounds of this invention and to identify EphB4 antagonists.
The kinase activity of EphB4 in cells depends on its autophosphorylation level stimulated by the binding to its ligand Ephrin-B2. High level of EphB4 autophosphorylation in PC-3 human prostate cancer cells (ATCC, USA) induced by the application of Ephrin-B2 to the cell culture can be observed by regular Western blotting assay.
A compound to be tested was first dissolved in DMSO to a concentration of 10 mM and stored at −20° C. On the day of screening procedure, the compound in DMSO was added into DMEM medium to a final concentration of 100 nM. Two hours later, Ephrin-B2 ([…]) was added into DMEM medium to stimulate the production of phosphor-EphB4. The phosphor-EphB4 was detected based on its molecular weight and with anti-phosphor protein antibody PY-20 in cell lysate from approximately 5×10^5 PC-3 cells by Western blotting followed by imaging quantification. The relative level of EphB4 kinase activity was quantified as the ratio between the amount of phosphor-EphB4 and that of total Actin proteins.

Row | SMILES | remaining activity at 0.1 µM (VEGFR2) [%] | remaining activity at 0.1 µM (EphB4) [%]
1 | [2H]C(c1c[nH]c2ncccc12)n1ccc2c(NC(=O)Nc3cc(Cl)ccc3OC([2H])([2H])[2H])cccc21 (centres unmarked) [Example 16, 1-[5-chloro-2-(trideuteriomethoxy)phenyl]-3-[1-[deuterio(1H-pyrrolo[2,3-b]pyridin-3-yl)methyl]indol-4-yl]urea] | < 70 | ≥ 70
2 | [2H]C([2H])([2H])Oc1ccc(Cl)cc1NC(=O)Nc1cccc2c1CCN2C([2H])([2H])c1ccnc(N)c1 [Example 3, 1-[1-[(2-Amino-4-pyridyl)-dideuteriomethyl]indolin-4-yl]-3-[5-chloro-2-(trideuteriomethoxy)phenyl]urea] | < 70 | < 70
3 | Cl.[2H]C([2H])([2H])Oc1ccc(Cl)cc1NC(=O)Nc1cccc2c1CCN2C([2H])([2H])c1ccnc2[nH]ccc12 [Example 7, 1-[5-Chloro-2-(trideuteriomethoxy)phenyl]-3-[1-[dideuterio(1H-pyrrolo[2,3-b]pyridin-4-yl)methyl]indolin-4-yl]urea hydrochloride] | < 70 | ≥ 70
4 | [2H]C([2H])([2H])Oc1ccc(Cl)cc1NC(=O)Nc1cccc2c1ccn2C([2H])([2H])c1ccnc(N)c1 [Example 4, 1-[1-[(2-amino-4-pyridyl)-dideuteriomethyl]indol-4-yl]-3-[5-chloro-2-(trideuteriomethoxy)phenyl]urea] | < 70 | < 70
5 | [2H]C(c1c[nH]c2ncccc12)n1ccc2c(NC(=O)Nc3cc(Cl)ccc3F)cccc21 (centres unmarked) [Example 20, 1-(5-chloro-2-fluorophenyl)-3-[1-[deuterio(1H-pyrrolo[2,3-b]pyridin-3-yl)methyl]indol-4-yl]urea] | < 70 | ≥ 70
6 | [2H]C([2H])([2H])Oc1ccc(Cl)cc1NC(=O)Nc1cccc2c1CCN2Cc1ccnc(N)c1 [Example 5, 1-[1-[(2-Amino-4-pyridyl)methyl]indolin-4-yl]-3-[5-chloro-2-(trideuteriomethoxy)phenyl]urea] | < 70 | < 70
7 | [2H]C(c1c[nH]c2ncccc12)N1CCc2c(NC(=O)Nc3cc(Cl)ccc3OC)cccc21 (centres unmarked) [Example 17, 1-(5-Chloro-2-methoxyphenyl)-3-[1-[deuterio(1H-pyrrolo[2,3-b]pyridin-3-yl)methyl]indolin-4-yl]urea] | < 70 | < 70
8 | [2H]C([2H])(c1ccnc2[nH]ccc12)n1ccc2c(NC(=O)Nc3cc(Cl)ccc3F)cccc21 [Example 12, 1-(5-chloro-2-fluorophenyl)-3-[1-[dideuterio(1H-pyrrolo[2,3-b]pyridin-4-yl)methyl]indol-4-yl]urea hydrochloride] | < 70 | < 70
9 | [2H]C(c1c[nH]c2ncccc12)n1ccc2c(NC(=O)Nc3cc(Cl)ccc3OC)cccc21 (centres unmarked) [Example 18, 1-(5-chloro-2-methoxyphenyl)-3-[1-[deuterio(1H-pyrrolo[2,3-b]pyridin-3-yl)methyl]indol-4-yl]urea] | < 70 | < 70
10 | [2H]C(c1c[nH]c2ncccc12)N1CCc2c(NC(=O)Nc3cc(Cl)ccc3OC([2H])([2H])[2H])cccc21 (centres unmarked) [Example 15, 1-[5-Chloro-2-(trideuteriomethoxy)phenyl]-3-[1-[deuterio(1H-pyrrolo[2,3-b]pyridin-3-yl)methyl]indolin-4-yl]urea] | < 70 | ≥ 70
11 | [2H]C([2H])(c1ccnc2[nH]ccc12)N1CCc2c(NC(=O)Nc3cc(Cl)ccc3F)cccc21 [Example 11, 1-(5-Chloro-2-fluorophenyl)-3-[1-[dideuterio(1H-pyrrolo[2,3-b]pyridin-4-yl)methyl]indolin-4-yl]urea hydrochloride] | < 70 | < 70
12 | [2H]C([2H])(c1ccnc2[nH]ccc12)n1ccc2c(NC(=O)Nc3cc(Cl)ccc3OC)cccc21 [Example 10, 1-(5-chloro-2-methoxyphenyl)-3-[1-[dideuterio(1H-pyrrolo[2,3-b]pyridin-4-yl)methyl]indol-4-yl]urea hydrochloride] | < 70 | ≥ 70
13 | Cl.[2H]C([2H])(c1ccnc(N)c1)n1ccc2c(NC(=O)Nc3cc(Cl)ccc3OC)cccc21 [Example 2, 1-[1-[(2-amino-4-pyridyl)-dideuteriomethyl]indol-4-yl]-3-(5-chloro-2-methoxyphenyl)urea hydrochloride] | < 70 | < 70
14 | [2H]C(c1c[nH]c2ncccc12)N1CCc2c(NC(=O)Nc3cc(Cl)ccc3F)cccc21 (centres unmarked) [Example 19, 1-(5-Chloro-2-fluorophenyl)-3-[1-[deuterio(1H-pyrrolo[2,3-b]pyridin-3-yl)methyl]indolin-4-yl]urea] | < 70 | ≥ 70
15 | [2H]C([2H])([2H])Oc1ccc(Cl)cc1NC(=O)Nc1cccc2c1ccn2Cc1ccnc(N)c1 [Example 6, 1-[1-[(2-amino-4-pyridyl)methyl]indol-4-yl]-3-[5-chloro-2-(trideuteriomethoxy)phenyl]urea] | ≥ 70 | < 70
16 | [2H]C([2H])(c1ccnc2[nH]ccc12)N1CCc2c(NC(=O)Nc3cccc(C)c3)cccc21 [Example 13, 1-[1-[Dideuterio(1H-pyrrolo[2,3-b]pyridin-4-yl)methyl]indolin-4-yl]-3-(m-tolyl)urea hydrochloride] | < 70 | ≥ 70
17 | [2H]C([2H])(c1ccnc2[nH]ccc12)n1ccc2c(NC(=O)Nc3cccc(C)c3)cccc21 [Example 14, 1-[1-[dideuterio(1H-pyrrolo[2,3-b]pyridin-4-yl)methyl]indol-4-yl]-3-(m-tolyl)urea hydrochloride] | < 70 | < 70
18 | [2H]C([2H])(c1ccnc(N)c1)N1CCc2c(NC(=O)Nc3cc(Cl)ccc3OC)cccc21 [Example 1, 1-[1-[(2-Amino-4-pyridyl)-dideuteriomethyl]indolin-4-yl]-3-(5-chloro-2-methoxyphenyl)urea] | < 70 | < 70
19 | Cl.[2H]C([2H])([2H])Oc1ccc(Cl)cc1NC(=O)Nc1cccc2c1ccn2C([2H])([2H])c1ccnc2[nH]ccc12 [Example 8, 1-[5-chloro-2-(trideuteriomethoxy)phenyl]-3-[1-[dideuterio(1H-pyrrolo[2,3-b]pyridin-4-yl)methyl]indol-4-yl]urea hydrochloride] | < 70 | ≥ 70
